Laboratory results as given in patent publication US11578055B2, “Triazacyclododecansulfonamide (“TCD”)-based protein secretion inhibitors” (KEZAR LIFE SCIENCES, priority 2018, dated 2023).

Columns and labels:
[1] = test system: PD1 signal sequence plus 10 amino acids fused to Gaussia Luciferase (PD1-ss+10aa/Gaussia Luciferase); experiment: Dox Induced PD1-ss-Gluc Assay; assay type: cell-based; conditions: 24 hr, Dox inducible, 293FRT/TO cells; read-out: 24 hr Dox Inducible PD1ssGluc 293FRT/TO: Mean IC50
Summary of the method: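 Compound dilutions in DMSO/media containing doxycycline were applied to a stable, inducible 293 T-REx line carrying the luciferase fusion, then incubated at 37 °C, 5% CO2. Where stereochemistry is not drawn, values relate to isomer mixtures.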

[2] = test system: HER3 signal sequence plus 4 amino acids fused to Gaussia Luciferase (HER3-ss+4aa/Gaussia Luciferase); experiment: Dox Induced HER3-ss-Gluc Assay; assay type: cell-based; conditions: 24 hr, doxycycline induced, Flp-In 293 T-REx cells; read-out: 24 hr Dox Inducible Her3(ss + 4) Gluc 293FRT/TO: Mean 1050
Excerpt: FIp-In 293 T-REx™ cells were transfected with pcDNA™5/FRT/TO plasmid inserted with cDNA encoding Gaussia Luciferase fused to the 3′ end of cDNA encoding HER3 signal sequence plus 4 amino acids (N-[…]-C) (SEQ ID NO: 2). Transfected cells were selected for resistance to the selectable markers Hygromycin and Blasticidin to create a stable cell line that contained the HER3-ss+4aa/Gaussia Luciferase cDNA insert whose expression was regulated under the T-REx™ system. The day before assay, cells were trypsinized and plated in 384-well tissue culture plates. The next day, compound dilutions in DMSO/media containing doxycycline were added to the wells and incubated at 37° C., 5% CO2.
For chemical structures that include one or more stereoisomers, but are illustrated without indicating stereochemistry, the assay data refers to a mixture of stereoisomers.

[3] = test system: multiple myeloma cell line NCl-H929; experiment: H929 Cell Viability Assay; assay type: cell-based, human; conditions: Homo sapiens, NCI-H929, 48 h, H929, Celltiter-Glo
Summary of the method: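 Viability was determined by CellTiter-Glo luminescence after a 48 h, 37 °C exposure of NCI-H929 cells to serial compound dilutions in medium containing 10% FBS. Where stereochemistry is not shown, values refer to a mix of stereoisomers.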

[4] = In Vitro Microsome Stability Assay (monkey); assay type: in vitro ADME; conditions: monkey liver microsomes, 30 min w/ NADPH
Summary of the method: (§1)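 Species liver microsomes in potassium phosphate buffer were preincubated at 37 °C for 3–5 min with test compound (added from 0.25 mM DMSO stock), then started with NADPH. Samples at 0 and 30 min were quenched with acetonitrile containing internal standard and analysed by LC-MS/MS; % remaining at 30 min used analyte/IS AUC ratios relative to t=0.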

[5] = test system: full length IL-2 (amino acids 1-153) fused to Gaussia Luciferase; experiment: Dox Induced IL2-FL-Gluc Assay; assay type: cell-based; conditions: 24 hr, Dox inducible, 293FRT/TO cells; read-out: 24 hr Dox Inducible IL2FLGluc 293FRT/TO: Mean IC50
Summary of the method: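 Compounds in DMSO/media with doxycycline were added to cells plated the previous day and incubated at 37° C, 5% CO2. Cells: stable Flp-In 293 T-REx line, Dox-regulated expression of IL-2 (aa 1-153) fused at its C-terminus to Gaussia luciferase.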

[6] = In Vitro Microsome Stability Assay (human); assay type: in vitro ADME; conditions: human liver microsomes, 30 min w/ NADPH
Summary of the method: as §1

[7] = test system: multiple myeloma cell line U266B1; experiment: U266 Cell Viability Assay; assay type: cell-based, human; conditions: Homo sapiens, U-266; 48 hr, U266, Celltiter-Glo
Summary of the method: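 Viability was measured by CellTiter-Glo luminescence after 48 h compound exposure at 37° C, 5% CO2. The cells were U266B1 multiple myeloma cells grown in RPMI 1640 plus 10% FBS. Where stereochemistry is not shown, values apply to the stereoisomer mixture.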

[8] = In Vitro Microsome Stability Assay (rat); assay type: in vitro ADME; conditions: rat liver microsomes, 30 min w/ NADPH
Summary of the method: as §1

[9] = In Vitro Microsome Stability Assay (mouse); assay type: in vitro ADME; conditions: mouse liver microsomes, 30 min w/ NADPH
Summary of the method: as §1

[10] = test system: full length TNFα (amino acids 1-233) fused to Gaussia Luciferase; experiment: Dox Induced TNFα-FL-Gluc Assay; assay type: cell-based; conditions: 24 hr, Dox inducible, 293FRT/TO cells; read-out: 24 hr Dox Inducible TNFaFLGluc 293FRT/TO: Mean IC50
Summary of the method: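 Compounds diluted in DMSO/medium with doxycycline were incubated at 37° C, 5% CO2 with 293 T-REx cells stably carrying a Tet-regulated TNFα(1-233)-Gaussia luciferase construct. Data for structures drawn without stereochemistry refer to stereoisomer mixtures.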

SMILES	IC50 [1] [nM]	IC50 [2] [nM]	EC50 [3] [nM]	Liver Microsome Stability-% Left after 30 min w/ NADPH (%) Monkey [4] [%]	IC50 [5] [nM]	Liver Microsome Stability-% Left after 30 min w/ NADPH (%) Human [6] [%]	EC50 [7] [nM]	Liver Microsome Stability-% Left after 30 min w/ NADPH (%) Rat [8] [%]	Liver Microsome Stability-% Left after 30 min w/ NADPH (%) Mouse [9] [%]	IC50 [10] [nM]
COc1ccc(N2CCN(S(=O)(=O)N3CCCN(CC4CCCCC4)CCCN(S(=O)(=O)c4ccc(N(C)C)cc4)C[C@H](C)C3)CC2)cc1 [A199, 4-{[(3S)-9-(cyclohexylmethyl)-5-{[4-(4-methoxyphenyl)piperazin-1-yl]sulfonyl}-3-methyl-1,5,9-triazacyclododecan-1-yl]sulfonyl}-N,N-dimethylaniline]	80.8	132	> 25000	25.5	162	8.0	> 25000	28.3	23.7	1420
COc1cc(F)cc(N2[C@H](C)CN(S(=O)(=O)N3CCCN(CC4CCCCC4)CCCN(S(=O)(=O)c4ccc(N(C)C)cc4)C[C@H](C)C3)C[C@H]2C)c1 [A200]	11.2	29.1	436	73.9	27.9	78.1	> 25000	83.1	71.9	285
COc1cccc(N2CCN(S(=O)(=O)N3CCCN(CC4CCCCC4)CCCN(S(=O)(=O)c4ccc(N(C)C)cc4)C[C@H](C)C3)CC2)c1 [A201, 4-{[(3S)-9-(cyclohexylmethyl)-5-{[4-(3-methoxyphenyl)piperazin-1-yl]sulfonyl}-3-methyl-1,5,9-triazacyclododecan-1-yl]sulfonyl}-N,N-dimethylaniline]	118	211	> 25000	26.5	283	32.8	> 25000	35.4	39.1	7090
COc1ccc(N2CCN(S(=O)(=O)N3CCCN(CC4CCCCC4)CCCN(S(=O)(=O)c4ccc(N(C)C)cc4)C[C@H](C)C3)CC2)cc1F [A202, 4-{[(3S)-9-(cyclohexylmethyl)-5-{[4-(3-fluoro-4-methoxyphenyl)piperazin-1-yl]sulfonyl}-3-methyl-1,5,9-triazacyclododecan-1-yl]sulfonyl}-N,N-dimethylaniline]	56.6	130	2910	38.3	176	13.3	> 25000	50.8	55.0	2050
COc1cc(F)ccc1N1CCN(S(=O)(=O)N2CCCN([C@@H](C)C3CCCCC3)CCCN(S(=O)(=O)c3ccc(N(C)C)cc3)C[C@H](C)C2)CC1 [A203]	14.8	34.1	396	77.9	30.4	83.4	> 25000	78.7	80.3	434
C[C@H]1CN(S(=O)(=O)c2ccc(N(C)C)cc2)CCCN(CC2CCC(F)CC2)CCCN(S(=O)(=O)N2CCc3cc(Cl)ccc3C2)C1 (stereo partly drawn) [A204, 4-{[(3S)-5-[(6-chloro-1,2,3,4-tetrahydroisoquinolin-2-yl)sulfonyl]-9-[(4-fluorocyclohexyl)methyl]-3-methyl-1,5,9-triazacyclododecan-1-yl]sulfonyl}-N,N-dimethylaniline]	58.4	134	1490	49.7	158	48.4	> 25000	58.3	62.6	982
C[C@H]1CN(S(=O)(=O)c2ccc(N(C)C)cc2)CCCN([C@@H](C)c2ccccc2)CCCN(S(=O)(=O)N2CCc3ccccc3C2)C1 [A205, N,N-dimethyl-4-{[(3S)-3-methyl-9-[(1 S)-1-phenylethyl]-5-(1,2,3,4-tetrahydroisoquinoline-2-sulfonyl)-1,5,9-triazacyclododecan-1-yl]sulfonyl}aniline]	129	230	2360	31.7	305	37.2	> 25000	38.7	38.9	1810
C[C@H]1CN(S(=O)(=O)c2ccc(N(C)C)cc2)CCCN(CC2CCCCC2)CCCN(S(=O)(=O)N2CCN(c3ccc(F)cc3Cl)CC2)C1 [A206, 4-{[(3S)-5-{[4-(2-chloro-4-fluorophenyl)piperazin-1-yl]sulfonyl}-9-(cyclohexylmethyl)-3-methyl-1,5,9-triazacyclododecan-1-yl]sulfonyl}-N,N-dimethylaniline]	17.4	38.2	657	65	39	54.7	> 25000	80.5	84.3	395
COc1cc(F)ccc1N1CCN(S(=O)(=O)N2CCCN([C@@H](C)C3CCCCC3)CCCN(S(=O)(=O)c3ccc(N(C)C)cc3)C[C@H](C)C2)C[C@H]1C [A207, 4-{[(3S)-9-[(1 S)-1-cyclohexylethyl]-5-{[(3 R)-4-(4-fluoro-2-methoxyphenyl)-3-methylpiperazin-1-yl]sulfonyl}-3-methyl-1,5,9-triazacyclododecan-1-yl]sulfonyl}-N,N-dimethylaniline]	7.93	18	106	63.0	10.6	62.7	> 25000	98.8	84.3	221
COc1ccc([C@@H]2CCCN(S(=O)(=O)N3CCCN(CC4CCCCC4)CCCN(S(=O)(=O)c4ccc(N(C)C)cc4)C[C@H](C)C3)C2)cc1 [A208, 4-{[(3S)-9-(cyclohexylmethyl)-5-{[(3S)-3-(4-methoxyphenyl)piperidin-1-yl]sulfonyl]-3-methyl-1,5,9-triazacyclododecan-1-yl]sulfonyl}-N,N-dimethylaniline]	343	428	> 25000	37.5	616	23.3	> 25000	68.9	51.8	> 25000
